# Assay results published in patent publication US20100196290A1, “COMPOSITIONS COMPRISING BETULONIC ACID” (Valtion teknillinen tutkimuskeskus, priority 2006, published 2010).
# Columns and labels:
# bacteria = assay: Antibacterial activity, overall statement on the examples; format: cell-based; settings: concentration of 1 μg/ml
# Source text: Erythromycin was used as the control.
# Caco-2 cells = assay: Cytotoxicity tests, viability of Caco-2 cells (LDH, WST-1 and ATP methods); format: cell-based, human; settings: 500 μM, exposure 24 hours
# Procedure: Caco-2 cells (cell line used as a model for human intestine) were introduced in a 96 well plate in an amount of 35 000 cells (for LDH method), 45 000 cells (for WST-1 method), or 25 000 cells (for ATP method) per well. After cultivation of 24 hours, the cells were exposed to the compounds being tested for 24 hours by adding said compounds to the culture medium to give a concentration of 500 μM (as stock solutions in DMSO).
# The influence of the compounds on the viability of the cells was measured by three different methods. Polymyxin B was used as the control. […] The amount of LDH in the sample due to exposure was quantified by means of an enzymatic reaction using the INT (iodonitrotetrazolium) colour reagent wherein the coloured reaction product formed was determined photometrically at 490 nm. In the WST-1 method, the metabolic activity of the cells after exposure was measured using the WST-1 reagent. Metabolic activity of a cell results in the generation of a coloured product from the reagent, said product being then used to evaluate the viability of the cells by photometric measurements (absorbance at 440 nm). In the ATP method, the amount of ATP within cells decreasing rapidly due to cellular damage was measured. In the method, ATP was luminometrically quantified by means of the ATP dependent luciferase-luciferin reaction. […]
Structure (SMILES),antibacterial activity (bacteria),cytotoxicity (Caco-2 cells)
"C=C(C)[C@@H]1CC[C@]2(COC(=O)c3ccccc3NC(C)=O)CC[C@]3(C)C(CCC4[C@@]5(C)CC[C@H](O)C(C)(C)C5CC[C@]43C)C12 (stereo partly drawn) [Yhdiste 29, 28-N-acetylanthranilic acid ester of betulin]",considerable antibacterial activity,
"C=C(C)[C@@H]1CC[C@]2(C(=O)O)CC[C@]3(C)[C@H](CC[C@@H]4[C@@]5(C)CCC(=O)C(C)(C)[C@@H]5CC[C@]43C)[C@@H]12 [Yhdiste 5, betulonic acid]",considerable antibacterial activity,low cytotoxicity
